Biological target: T1, presenilin (Homo sapiens, UniProt P49768)
T1 construct: endogenous in cells; probably K293
Assay: Pulse-chase of cells stably expressing F-NEXT with or without γ-secretase inhibitor; immunoprecipitation/SDS-PAGE of media (Nβ release) and lysates (NICD)
Assay type: cell-based
Details: 1 μM inhibitor, 1 hour pulse, 2-hour chase
Experimental: Human embryonic kidney 293 (K293), N2a and COS cells were cultured in DMEM supplemented with 10% fetal bovine serum, 1% penicillin/streptomycin, and 200 μg/ml zeocin (to select for PS1 expression), and/or 100 μg/ml hygromycin (to select for NΔE and F-NEXT expression). The K293 can stably express wild-type PS1, PS1 L286V, or PS1 D385N (Okochi et al, 2000, Kulic et al, 2000, Wolfe et al., 1999). The transfection with NΔE or F-NEXT was performed by means of a product named Lipofectamine 2000 (Invitrogen).
To determine NΔE N-terminal fragment (NTF: Nβ) release from NΔE expressing cells, K293 cells stably transfected with NΔE or NICD were grown to confluence in a 10 cm dish. The cells were then metabolically pulse-labeled for 2 hours with 300 μCi [^3H] amino acids (tritiated amino acid mixture, Amersham) in Earle's Balanced Salt Solution supplemented with MEM Vitamine Solution (Gibco) and several cold amino acids, followed by a 6-hour chase by 10% FCS/DMEM. To examine Nβ release, cells expressing F-NEXT were, at first, starved of methinine for 40 min with methionine-free media and then pulse-labeled for 1 hour with 400 μCi [^35S] amino acid mixture (Redivue Promix, Amersham) in methionine-free DMEM, followed by chasing for various time periods with the chase media containing 10% FCS/DMEM supplemented with excess cold methionine. […]

NICD band in cell lysates (S3 cleavage), immunoprecipitated with 9E10 (FIG. 5B lower panel): hardly visible
Nβ release to culture media (S4 cleavage), immunoprecipitated with M2-agarose (FIG. 5B upper panel): decreased drastically
SMILES: CC(C)C[C@H](NC(=O)[C@H](Cc1ccccc1)C[C@@H](O)[C@H](Cc1ccccc1)NC(=O)OC(C)(C)C)C(=O)N[C@@H](Cc1ccccc1)C(N)=O [L685,458, [(2R,4R,5S)-2-Benzyl-5-(Boc-amino)-4-hydroxy-6-phenyl-hexanoyl]-Leu-Phe-NH2]

— US20100173331A1, “NOVEL NOTCH-ORIGIN POLYPEPTIDES AND BIOMARKERS AND REAGENTS USING THE SAME” (priority 2002, published 2010)
